Laboratory results: article PMC5556071, “ATR inhibition facilitates targeting of leukemia dependence on convergent nucleotide biosynthetic pathways” (Nature Communications, 2017)

Assays:
[1] = test system: ATR; set-up: method as in earlier work; conditions: ref #35, Fokas et al., 2014; cited from earlier work
[2] = test system: CHEK1 pS345; assay: Western blot of replication stress marker in CEM cells; format: cell-based, human
Protocol: Cells were lysed using RIPA buffer supplemented with protease (ThermoFisher, 78,430) and phosphatase (ThermoFisher, 78,420) inhibitors, scraped, sonicated, and centrifuged (20,000 × g at 4 °C). Protein concentrations in the supernatant were determined using the Micro BCA Protein Assay kit (Thermo), and equal amounts of protein were resolved on pre-made Bis-Tris polyacrylamide gels (Life Technologies). Primary antibodies: pS345 CHEK1 (Cell signaling, #2348 L, 1:1000), pT68 CHEK2 (Cell signaling, #2197 S, 1:1000), pS139 H2A.X (Millipore, 05-636, 1:1000), clvd. Casp8 (Cell signaling, #8592, 1:1000), clvd. Casp9 (Cell signaling, #9502, 1:1000), clvd. Casp3 (Cell signaling, #9662, 1:1000), clvd. PARP (Cell signaling, #5625 P, 1:1000), and anti-actin (Cell Signaling Technology, 9470, 1:10,000). Primary antibodies were stored in 5% BSA (Sigma-Aldrich) and 0.1% NaN3 in TBST solution. Anti-rabbit IgG HRP-linked (Cell Signaling Technology, 7074, 1:2500) and anti-mouse IgG HRP-linked (Cell Signaling Technology, 7076, 1:2500) were used as secondary antibodies. Chemiluminescent substrates (ThermoFisher Scientific, 34,077 and 34,095) and autoradiography film (Denville) were used for detection.

[3] = test system: p185BCR-ABL Arf–/– pre-B-ALL; assay: Systemic primary pre-B-ALL leukemia model, survival, bioluminescence, body weight; format: in vivo
Protocol: For development of systemic leukemia model, C57Bl/6 female mice were injected intravenously with 50,000 firefly luciferase expressing p185^BCR-ABL Arf ^−/− pre-B-ALL cells[12], [31]. The leukemic burden was monitored using bioluminescence imaging. All drug treatments were performed in an oral formulation consisting of PEG-200, Transcutol, Labrasol and Tween-80 blended in a ratio of 5:3:1:1. The oral gavage volume was 50 µl per dose (a detailed description is available in the Supplementary Information).
All C57BL/6 female mice were purchased from the UCLA Radiation Oncology breeding colony. […] For oral administration, single agent or combination of drugs were solubilized in a formulation consisting of the following: PEG-200: Transcutol: Labrasol: Tween-80 mixed in 5:3:1:1 ratio. For i.p. administration, the drugs were solubilized in PEG-400 and 1 mM Tris-HCl in a 1:1 (v:v) ratio. Dasatinib (LC Laboratories) was solubilized in 80 mM citric acid (pH 3.1) and was administered at a dose of 10 mg kg^–1 by oral gavage. 2 × 10^5 luciferase expressing p185^BCR-ABL Arf ^−/− pre-B-ALL cells were injected intravenously into C57BL/6 female mice for leukemia induction. […] The mice were observed daily and those that became moribund during the trials, (paralysis of hind limbs, significant body weight loss) were sacrificed immediately.
Mice were anesthetized with 2% isoflurane followed by intraperitoneal injection of 50 μl (50 mg ml^−1) substrate D-luciferin (Sigma, #L9504). The mice were imaged with the IVIS 100 Bioluminescence Imaging scanner 10 min after luciferin administration. All mice were imaged in groups of five with 1-minute exposure time, and the images were acquired at low binning.

[4] = test system: CEM cells; assay: Proliferation assay (CellTiter-Glo, 72 h); format: cell-based, human
Protocol: Cells were plated in 384-well plates (1000 cells/well for suspension cell lines and 500 cells/well for adherent cell lines in 30 µl volume). Drugs were serially diluted to the desired concentrations and an equivalent volume of DMSO was added to vehicle control. Ten microliter of the 4× diluted drugs were added to each well. Following 72 h incubation, ATP content was measured using CellTiter-Glo reagent according to manufacturer’s instructions (Promega, CellTiter-Glo Luminescent Cell Viability Assay), and analyzed by SpectraMax luminometer (Molecular Devices). IC50 values, concentrations required to inhibit proliferation by 50% compared to DMSO treated cells, were calculated using Prism 6.0 h (Graphpad Software).

[5] = test system: CEM T-ALL cells; assay: ssDNA (F7-26) and pH2A.X flow cytometry; format: cell-based, human
Protocol: Treated CEM T-ALL cells were fixed with ice-cold methanol:PBS (6:1 v/v). Staining with F7-26 ssDNA monoclonal antibody (mouse) was performed according to manufacturer’s instructions (EMD Millipore, #MAB3299) followed by secondary antibody IgM-PE. Subsequently, cells were stained with the phospho-Histone H2A.X (pS139 H2A.X) specific antibody conjugated to FITC (EMD Millipore, #05-636) and DAPI, and then analyzed by flow cytometry (a detailed description is available in the Supplementary Information).
(525→383). The peak areas for each drug (precursor→fragment ion transitions) at predetermined retention times were recorded using the software supplied by the instrument manufacturer (Agilent MassHunter).
Cell cycle histograms. Cells were plated at a density of 0.5 x 10^6 cells/mL in respective media or drug treated media. […]
Cell cycle kinetics and cell cycle progression by intracellular detection of DNA-incorporated 5-ethynyl-2-deoxyuridine (EdU). […] The total DNA content was assessed by staining the samples with FxCycle-Violet (Invitrogen, #F10347) at 1 µg/mL final concentration in PBS containing 2% FBS. […] Total DNA content was assessed by staining with FxCycle-Violet (Invitrogen) at 1 µg/mL final concentration in PBS containing 2% FBS. pH2A.X staining. […]
Measurement of ssDNA levels using the F7-26 monoclonal antibody. […] Cells were washed with PBS and stained with 100 µL of fluorescence-conjugated […]

| SMILES | cellular selectivity for ATR compared to other members of the PIKK family (including ATM and DNA-PK) [1] | CHEK1 pS345 induced by RNR inhibition ([2]; 0.5 h time point) | CHEK1 pS345 induced by RNR inhibition ([2]; 4 h time point) | CHEK1 pS345 levels ([2]; CEM cells, VE-822 1 µM, 24 h) | efficacy in vivo of VE-822 alone ([3]; VE-822 40 mg kg–1 once daily) | time by which all treated mice died of leukemia ([3]; after inoculation, VE-822 40 mg kg–1 once daily) | Median survival ([3]; after treatment initiation, 40 mg kg–1 day–1 VE-822, n = 6) | IC50 [4] | increase of the percentage of ssDNA+ cells ([5]; 0.5 h after treatment) | increase of the percentage of ssDNA+ cells ([5]; 4 h time point) |
| --- | --- | --- | --- | --- | --- | --- | --- | --- | --- | --- |
| CNCc1ccc(-c2cc(-c3nc(-c4ccc(S(=O)(=O)C(C)C)cc4)cnc3N)on2)cc1 [VE-822] | > 100 fold | abrogated | partially inhibited | reduced | only marginally efficacious | ≤ 38 days | 32.5 days | – | – | – |
| NC(=S)N/N=C/c1ncccc1N [3-AP] | – | – | – | – | – | – | – | 1060 nM | more than two-fold | greater than three-fold |
